Target: T1, M4 receptor (Homo sapiens, UniProt P08173)
T1 construct: expressed in transfected cells; host or cells: CHO (M4-CHO cells)
T1 sequence (P08173 1-479): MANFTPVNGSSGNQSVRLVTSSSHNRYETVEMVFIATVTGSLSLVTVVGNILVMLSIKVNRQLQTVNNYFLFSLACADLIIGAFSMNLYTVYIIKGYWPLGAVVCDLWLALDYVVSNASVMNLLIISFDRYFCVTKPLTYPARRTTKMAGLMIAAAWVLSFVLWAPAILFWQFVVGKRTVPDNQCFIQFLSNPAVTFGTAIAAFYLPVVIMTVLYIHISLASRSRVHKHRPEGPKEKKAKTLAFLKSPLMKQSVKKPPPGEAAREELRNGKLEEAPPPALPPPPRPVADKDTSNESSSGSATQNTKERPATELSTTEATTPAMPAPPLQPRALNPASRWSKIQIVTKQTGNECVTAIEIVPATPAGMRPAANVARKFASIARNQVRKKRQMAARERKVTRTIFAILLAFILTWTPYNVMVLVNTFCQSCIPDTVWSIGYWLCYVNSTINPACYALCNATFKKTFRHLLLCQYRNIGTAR
Assay: PAM agonistic activity of compound on M4 receptor (FLIPR Calcium 6 assay in M4-CHO cells)
Format: cell-based
Conditions: with acetylcholine (Ach), final concentration 3 nM
Protocol: • 1). Cell plating: M4-CHO cells were digested, collected, and resuspended. After cell counting, the cell suspension was seeded into a 384-well cell plate at a density of: 1.2 × 10^4 cells/25 µL/well. The cell plate was then cultured in a 37°C, 5% CO2 incubator for about 16-20 h. • 2). Day 2: Assay Buffer was prepared according to the instructions of the FLIPR Calcium 6 Assay Kit. Component A (20×) was thawed to room temperature and diluted with the Assay Buffer to prepare a loading buffer (1×), which was stored at room temperature until use. • 3). The culture medium was removed from the cell plate. 40 µL of the loading buffer (1×) was quickly added to each well. The cell plate was then centrifuged and incubated at 37°C in the dark for 120 min. • 4). Working solutions of the positive control compound and the test compounds were prepared. An acetylcholine (Ach) agonist compound solution was prepared (final concentration: 3 nM). The PAM compound and the Ach agonist solution were mixed at a 1 : 1 ratio, and the mixture was transferred into a 384-well compound source plate at 20 µL per well. • 5). The cell plate, the compound source plate, and the pipette tips were placed into the corresponding positions within the FLIPR instrument. 10 µL of the diluted compound from step 4 was added into each experimental well using the FLIPR Tetra. Data was collected at the wavelength of 515 nm-575 nm. • 6). The signal values were plotted against the compound concentrations. Nonlinear regression analysis was performed using GraphPad Prism software for curve fitting and EC50 calculation.
The experimental results are shown in Table 1, where A represents EC50 < […]; B represents 100 nM ≤ EC50 < 500 nM, and C represents 500 nM ≤ EC50. Table 1. Agonistic activity of compounds on M4 receptor

EC50 [nM]	Compound
< 100	Cc1cc(C)c2c(n1)CN(C(=O)CC1CN(c3ccc4c(c3)C(F)C(F)C4)C1)C2 (racemic) [Compound 12, isomer 1]
< 100	Cc1cc(C)c2c(n1)CN(C(=O)CC1CN(c3ccc4c(c3)C(F)C(F)C4)C1)C2 (racemic) [Compound 12, isomer 2]
< 100	Cc1cc(C2CCOC2)nc2c1CN(C(=O)CC1CN(c3ccnc(C(F)(F)F)c3)C1)C2 (single isomer, unassigned) [Compound 152]
< 100	Cc1cc(C2CCOC2)nc2c1CN(C(=O)CC1CN(c3ccnc(C(F)(F)F)c3)C1)C2 (single isomer, unassigned) [Compound 153]
< 100	Cc1cc(C2CCOC2)nc2c1CN(C(=O)CC1CN(c3ccnc(OC4CC(F)(F)C4)c3)C1)C2 (single isomer, unassigned) [Compound 154]
< 100	Cc1cc(C2CCOC2)nc2c1CN(C(=O)CC1CN(c3ccnc(OC4CC(F)(F)C4)c3)C1)C2 (single isomer, unassigned) [Compound 155]
< 100	Cc1cc(-c2cnn(C)c2)nc2c1CN(C(=O)CC1CN(c3ccnc(OC4CC(F)C4)c3)C1)C2 (single isomer, unassigned) [Compound 156]
< 100	Cc1ccn(-c2cc(N3CC(CC(=O)N4Cc5nc(C6CCOC6)cc(C)c5C4)C3)ccn2)n1 (single isomer, unassigned) [Compound 185]
< 100	Cc1ccn(-c2cc(N3CC(CC(=O)N4Cc5nc(C6CCOC6)cc(C)c5C4)C3)ccn2)n1 (single isomer, unassigned) [Compound 186]
< 100	Cc1cc(C2CCOC2)nc2c1CN(C(=O)CC1CN(c3ccnc(-n4ccc(F)n4)c3)C1)C2 (single isomer, unassigned) [Compound 187]
< 100	Cc1cc(C)c2c(n1)CN(C(=O)CC1CN(c3ccnc(-c4ccsc4)c3)C1)C2 [Compound 1]
< 100	Cc1cc(C)c2c(n1)CN(C(=O)CC1CN(c3ccnc(-c4cnn(C(F)F)c4)c3)C1)C2 [Compound 5]
< 100	Cc1cc(C)c2c(n1)CN(C(=O)CC1CN(c3ccnc(-c4cc(C(F)(F)F)nn4C)c3)C1)C2 [Compound 6]
< 100	Cc1cc(C)c2c(n1)CN(C(=O)CC1CN(c3ccnc(-c4cnn(C)c4)c3)C1)C2 [Compound 7]
< 100	Cc1cc(C)c2c(n1)CN(C(=O)CC1CN(c3ccnc(-c4cc(C(F)(F)F)n(C)n4)c3)C1)C2 [Compound 14]
< 100	Cc1cc(C)c2c(n1)CN(C(=O)CC1CN(c3ccnc(-c4ccnc(C(F)(F)F)c4)c3)C1)C2 [Compound 16]
< 100	Cc1cc(C)c2c(n1)CN(C(=O)CC1CN(c3ccnc(-c4cnsc4)c3)C1)C2 [Compound 21]
< 100	Cc1cc(C)c2c(n1)CN(C(=O)CC1CN(c3ccnc(-c4ccnn4C)c3)C1)C2 [Compound 22]
< 100	Cc1csc(-c2cc(N3CC(CC(=O)N4Cc5nc(C)cc(C)c5C4)C3)ccn2)c1 [Compound 23]
< 100	Cc1cc(C)c2c(n1)CN(C(=O)CC1CN(c3ccnc(-n4nccc4C)c3)C1)C2 [Compound 26]

EC50 [nM]	Compound
< 100	Cc1cc(C)c2c(n1)CN(C(=O)CC1CN(c3ccnc(-c4cnoc4)c3)C1)C2 [Compound 27]
< 100	Cc1cc(C)c2c(n1)CN(C(=O)CC1CN(c3ccnc(-n4nc(C)cc4C)c3)C1)C2 [Compound 30]
< 100	Cc1cc(C)c2c(n1)CN(C(=O)CC1CN(c3ccnc(Oc4cnn(C(F)F)c4)c3)C1)C2 [Compound 37]
< 100	Cc1cc(C)c2c(n1)CN(C(=O)CC1CN(c3ccnc(C(=O)NC4CC4)c3)C1)C2 [Compound 38]
< 100	Cc1cc(C)c2c(n1)CN(C(=O)CC1CN(c3ccnc(-c4noc(C(F)(F)F)n4)c3)C1)C2 [Compound 39]
< 100	Cc1cnn(-c2cc(N3CC(CC(=O)N4Cc5nc(C)cc(C)c5C4)C3)ccn2)c1 [Compound 40]
< 100	Cc1cc(C)c2c(n1)CN(C(=O)CC1CN(c3ccnc(-n4c(C)nnc4C(F)(F)F)c3)C1)C2 [Compound 43]
< 100	Cc1cc(C)c2c(n1)CN(C(=O)CC1CN(c3ccnc(-c4nc(C(F)(F)F)nn4C)c3)C1)C2 [Compound 44]
< 100	Cc1cc(C)c2c(n1)CN(C(=O)CC1CN(c3ccnc(-n4cc(C(F)(F)F)nc4C)c3)C1)C2 [Compound 46]
< 100	Cc1cc(C)c2c(n1)CN(C(=O)CC1CN(c3ccnc(-n4cnc(C(F)(F)F)n4)c3)C1)C2 [Compound 47]
< 100	Cc1cc(C)c2c(n1)CN(C(=O)CC1CN(c3cc(-n4ccc(C)n4)ncn3)C1)C2 [Compound 48]
< 100	Cc1cc(C)c2c(n1)CN(C(=O)CC1CN(c3ccnc(OC4CC4)c3)C1)C2 [Compound 49]
< 100	Cc1ccn(-c2cc(N3CC(CC(=O)N4Cc5nc(C)cc(C)c5C4)C3)ccn2)c1 [Compound 50]
< 100	Cc1cc(C)c2c(n1)CN(C(=O)CC1CN(c3ccnc(O[C@@H]4CCOC4)c3)C1)C2 [Compound 51]
< 100	Cc1cc(C)c2c(n1)CN(C(=O)CC1CN(c3ccnc(O[C@H]4CCOC4)c3)C1)C2 [Compound 52]
< 100	Cc1cc(C)c2c(n1)CN(C(=O)CC1CN(c3ccnc(Oc4cnn(C)c4)c3)C1)C2 [Compound 53]
< 100	Cc1cc(C)c2c(n1)CN(C(=O)CC1CN(c3ccnc(-n4cnc(C)n4)c3)C1)C2 [Compound 54]
< 100	Cc1cc(C)c2c(n1)CN(C(=O)CC1CN(c3ccnc(-n4cc(C)c(C)n4)c3)C1)C2 [Compound 55]
< 100	Cc1cc(C)c2c(n1)CN(C(=O)CC1CN(c3ccnc(-n4cccn4)c3)C1)C2 [Compound 56]
< 100	Cc1cc(C)c2c(n1)CN(C(=O)CC1CN(c3ccnc(-n4cncn4)c3)C1)C2 [Compound 58]

EC50 [nM]	Compound
< 100	Cc1nc2c(c(N3CCC3)n1)CN(C(=O)CC1CN(c3ccnc(-n4nccc4C)c3)C1)C2 [Compound 62]
< 100	Cc1cc(C)c2c(n1)CN(C(=O)CC1CN(c3ccnc(-c4ccc5ccnn5c4)c3)C1)C2 [Compound 63]
< 100	Cc1cc(C)c2c(n1)CN(C(=O)CC1CN(c3ccnc(NC4CC(F)(F)C4)c3)C1)C2 [Compound 67]
< 100	Cc1cc(C)c2c(n1)CN(C(=O)CC1CN(c3ccnc(-n4cc(C)nc4C)c3)C1)C2 [Compound 75]
< 100	Cc1cc(C)c2c(n1)CN(C(=O)CC1CN(c3ccnc(-n4ccc(F)n4)c3)C1)C2 [Compound 76]
< 100	Cc1coc(-c2cc(N3CC(CC(=O)N4Cc5nc(C)cc(C)c5C4)C3)ccn2)n1 [Compound 78]
< 100	Cc1cc(CO)nc2c1CN(C(=O)CC1CN(c3ccnc(OC4CC(F)(F)C4)c3)C1)C2 [Compound 81]
< 100	Cc1cc(C)c2c(n1)CN(C(=O)CC1CN(c3ccnc(OC4CCC(F)(F)C4)c3)C1)C2 (stereo not drawn) [Compound 83]
< 100	Cc1ccn(-c2cc(N3CC(CC(=O)N4Cc5nc(CO)cc(C)c5C4)C3)ccn2)n1 [Compound 84]
< 100	Cc1ccn(-c2cc(N3CC(CC(=O)N4Cc5nc(COC6COC6)cc(C)c5C4)C3)ccn2)n1 [Compound 85]
< 100	Cc1ccn(-c2cc(N3CC(CC(=O)N4Cc5nc(C)c6c(c5C4)CCC6)C3)ccn2)n1 [Compound 87]
< 100	Cc1ccn(-c2cc(N3CC(CC(=O)N4Cc5nc(C)nc(N(C)C)c5C4)C3)ccn2)n1 [Compound 90]
< 100	Cc1ccn(-c2cc(N3CC(CC(=O)N4Cc5nc(COC6CC6)cc(C)c5C4)C3)ccn2)n1 [Compound 91]
< 100	Cc1ccn(-c2cc(N3CC(CC(=O)N4Cc5nc6c(c(C)c5C4)CCC6)C3)ncn2)n1 [Compound 92]
< 100	Cc1c2c(nc3c1CN(C(=O)CC1CN(c4ccnc(OC5CCOC5)c4)C1)C3)CCC2 (stereo not drawn) [Compound 93]
< 100	Cc1c2c(nc3c1CN(C(=O)CC1CN(c4ccc5c(c4)CCC5=O)C1)C3)CCC2 [Compound 94]
< 100	Cc1c2c(nc3c1CN(C(=O)CC1CN(c4ccnc(-n5cccn5)c4)C1)C3)CCC2 [Compound 95]
< 100	Cc1cc(C)c2c(n1)CN(C(=O)CC1CN(c3ccnc(-c4nc(C)nn4C)c3)C1)C2 [Compound 96]

Compound	EC50 [nM]
Cc1cc(C)c2c(n1)CN(C(=O)CC1CN(c3ccnc(NC(=O)C4CC4)c3)C1)C2 [Compound 24]	< 100
Cc1cc(C)c2c(n1)CN(C(=O)CC1CN(c3ccnc(OC4CC(F)(F)C4)c3)C1)C2 [Compound 25]	< 100

From patent EP4733303A1, “MUSCARINIC M4 RECEPTOR AGONIST AND USE THEREOF” (Haisco Pharmaceutical Group Co., Ltd., priority 2023, dated 2024)
